Where a SMILES comes first, the peptide text is derived from it. Bridges are numbered along the chain shown (N, C = ends). [ ]: non-standard residue; d: D form. The star is where a group is joined. hPhe(3-Cl-4-CF3) = N[C@@H](CCc1ccc(C(F)(F)F)c(Cl)c1)C(=O)O; NPrPhe(4-CF3) = CCCN[C@@H](Cc1ccc(C(F)(F)F)cc1)C(=O)O; NPrPhe(4-Me) = CCCN[C@@H](Cc1ccc(C)cc1)C(=O)O; NEtPhe(4-Me) = CCN[C@@H](Cc1ccc(C)cc1)C(=O)O; NEtPhe(4-F) = CCN[C@@H](Cc1ccc(F)cc1)C(=O)O; Abu(4,4,4-F3) = N[C@@H](CC(F)(F)F)C(=O)O; NMeGly(cPent) = CN[C@H](C(=O)O)C1CCCC1; Aze(3S-Me) = C[C@H]1CN[C@@H]1C(=O)O; NMeD = CN[C@@H](CC(=O)O)C(=O)O; NMeL = CN[C@@H](CC(C)C)C(=O)O; Morpholide = C1CN(*)CCO1; NMeA = CN[C@@H](C)C(=O)O; Ac5c = NC1(C(=O)O)CCCC1; Aze = O=C(O)[C@@H]1CCN1; NcPrGly = O=C(O)CNC1CC1; Ac4c = NC1(C(=O)O)CCC1; NEtG = CCNCC(=O)O; Sar = CNCC(=O)O
Tests used:
[1] = system: human lung cancer strain NCI-H441; type: cell-based
Method in brief: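 Proliferation was scored by […] measured after the reagent was added to cultures kept at 37°C in 5% carbon dioxide.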

[2] = biological target: GDP-bound NRAS wild-type protein (Homo sapiens, UniProt P01111); experiment: Binding to NRAS by surface plasmon resonance (SPR), KD and KD ratio to KRAS
Method in brief: (§1)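 Single-cycle kinetics on GDP-loaded biotin-Avi RAS captured to ~100–300 RU; 75 s ascending injections, 100 µL/min, 30°C. HBS pH 7.4 + 10 mM MgCl2/10 µM GDP/4% DMSO. 1:1 fit, KD.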

HRAS wild-type protein = HRAS wild-type protein (Homo sapiens, UniProt P01112); experiment: Binding to HRAS by surface plasmon resonance (SPR), KD and KD ratio to KRAS
Method in brief: as §1

[3] = ratio of KD for GDP-bound NRAS wild-type protein to KD for KRAS
[4] = ratio of KD for HRAS wild-type protein to KD for KRAS
[5] = ratio of the KD value with respect to GDP-bound NRAS wild-type protein to the KD value with respect to KRAS
[6] = ratio of the KD value with respect to HRAS wild-type protein to the KD value with respect to KRAS

GDP-bound NRAS wild-type protein, sequence (P01111 whole entry): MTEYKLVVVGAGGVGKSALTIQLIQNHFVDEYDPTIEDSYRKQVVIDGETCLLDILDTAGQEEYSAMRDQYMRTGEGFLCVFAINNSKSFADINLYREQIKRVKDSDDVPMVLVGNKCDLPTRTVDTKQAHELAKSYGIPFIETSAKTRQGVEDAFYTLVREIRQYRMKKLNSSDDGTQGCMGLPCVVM
HRAS wild-type protein, sequence (P01112 whole entry): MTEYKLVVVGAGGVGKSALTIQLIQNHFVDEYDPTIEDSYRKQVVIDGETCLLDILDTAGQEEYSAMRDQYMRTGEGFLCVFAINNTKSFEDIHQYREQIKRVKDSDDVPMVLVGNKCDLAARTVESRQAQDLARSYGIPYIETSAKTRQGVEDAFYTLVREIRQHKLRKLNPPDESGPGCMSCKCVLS

SMILES | IC50 [1] [nM] | NRAS /KRAS [2, 3] | HRAS /KRAS (HRAS wild-type protein; [4]) | NRAS /KRAS [2, 5] | HRAS /KRAS (HRAS wild-type protein; [6]) | NRAS /KRAS ([2]; ratio of KD with respect to GDP-bound NRAS wild-type protein to KD with respect to KRAS) | HRAS /KRAS (HRAS wild-type protein; ratio of KD with respect to HRAS wild-type protein to KD with respect to KRAS)
CCO[C@@H]1C[C@H]2C(=O)NC3(CC(C)(C)C3)C(=O)N(C)[C@@H](C3CCCC3)C(=O)N(C)[C@H](C(=O)N(C)C)CC(=O)N(C)[C@@H](CC(C)C)C(=O)N[C@@H]([C@@H](C)CC)C(=O)N(C)CC(=O)N(C)[C@H]3C/C=C\CCN(C3=O)[C@@H](Cc3ccc(C4CC4)cc3)C(=O)N(C)CC(=O)N[C@@H](CCc3ccc(C(F)(F)F)c(OC)c3)C(=O)N2C1 [PP2691] | 3.5 | AA (a compound having 20 or more is denoted as AA) | A (a compound having 10 or more and less than 20 is denoted as A) |  |  |  | 
CCCN1C(=O)[C@@H]2[C@@H](C)CN2C(=O)[C@H](C)N(C)C(=O)[C@H]([C@@H](C)CC)NC(=O)[C@H](CC(C)C)N(C)C(=O)C[C@@H](C(=O)N2CCOCC2)N(C)C(=O)[C@H](C2CCCC2)N(C)C(=O)C2(CCCC2)NC(=O)[C@@H]2CCCN2C(=O)[C@H](CCc2ccc(C(F)(F)F)c(Cl)c2)NC(=O)CN(C)C(=O)[C@@H]1Cc1ccc(C)cc1 [PP0138] ([NMeL]I[NMeA][Aze(3S-Me)][NPrPhe(4-Me)][Sar][hPhe(3-Cl-4-CF3)]P[Ac5c][NMeGly(cPent)][NMeD]-Morpholide; lactam N-11) | 20.6 | C (A compound having a KD ratio of 0.1 or more and less than 3 is denoted as C) | C (A compound having a KD ratio of 0.1 or more and less than 3 is denoted as C) |  |  |  | 
CC[C@H](C)[C@@H]1NC(=O)[C@H](CC(C)C)N(C)C(=O)C[C@@H](C(=O)N2CCOCC2)N(C)C(=O)[C@H](C2CCCC2)N(C)C(=O)C2(CCCC2)NC(=O)[C@@H]2CCCN2C(=O)[C@H](CCc2ccc(C(F)(F)F)c(Cl)c2)NC(=O)CN(CC)C(=O)[C@H](Cc2ccc(C)cc2)N(CC)C(=O)CN(C)C(=O)CN(C)C1=O [PP0028] ([NMeL]I[Sar][Sar][NEtPhe(4-Me)][NEtG][hPhe(3-Cl-4-CF3)]P[Ac5c][NMeGly(cPent)][NMeD]-Morpholide; lactam N-11) | 54.5 | C (A compound having a KD ratio of 0.1 or more and less than 3 is denoted as C) | C (A compound having a KD ratio of 0.1 or more and less than 3 is denoted as C) |  |  |  | 
CCCN1C(=O)[C@@H]2CCN2C(=O)CN(C2CC2)C(=O)[C@H]([C@@H](C)CC)NC(=O)[C@H](CC(C)C)N(C)C(=O)C[C@@H](C(=O)N2CCOCC2)N(C)C(=O)[C@H](C2CCCC2)N(C)C(=O)C2(CCCC2)NC(=O)[C@@H]2CCCN2C(=O)[C@H](CCc2ccc(C(F)(F)F)c(Cl)c2)NC(=O)CN(C)C(=O)[C@@H]1Cc1ccc(C(F)(F)F)cc1 [PP0273] ([NMeL]I[NcPrGly][Aze][NPrPhe(4-CF3)][Sar][hPhe(3-Cl-4-CF3)]P[Ac5c][NMeGly(cPent)][NMeD]-Morpholide; lactam N-11) | 12.2 | C (A compound having a KD ratio of 0.1 or more and less than 3 is denoted as C) | B (a compound having 3 or more and less than 10 is denoted as B) |  |  |  | 
CCC[C@H]1C(=O)N[C@@H]([C@@H](C)CC)C(=O)N(C)CC(=O)N(C)[C@H]2C/C=C\CCN(C2=O)[C@@H](Cc2ccc(C(F)(F)F)cc2)C(=O)N(C)CC(=O)N[C@@H](CCc2cc(F)c(C(F)(F)F)c(F)c2)C(=O)N2C[C@H](OCC)C[C@H]2C(=O)NC2(CCC2)C(=O)N(C)[C@@H](C2CCCC2)C(=O)N(C)[C@H](C(=O)N(CC)CC)CC(=O)N1C [PP1310] | 4.5 |  |  |  |  | AA (a compound having 20 or more is denoted as AA) | A (a compound having 10 or more and less than 20 is denoted as A)

The remaining compounds from weak to strong by IC50 [1], led by results:

IC50 [1] [nM] | SMILES | NRAS /KRAS [2, 3] | HRAS /KRAS (HRAS wild-type protein; [4]) | NRAS /KRAS [2, 5] | HRAS /KRAS (HRAS wild-type protein; [6]) | NRAS /KRAS ([2]; ratio of KD with respect to GDP-bound NRAS wild-type protein to KD with respect to KRAS) | HRAS /KRAS (HRAS wild-type protein; ratio of KD with respect to HRAS wild-type protein to KD with respect to KRAS)
142 | CCCN1C(=O)CN(C)C(=O)[C@@H]2CCN2C(=O)[C@H]([C@@H](C)CC)NC(=O)[C@H](CC(C)C)N(C)C(=O)C[C@@H](C(=O)N(C)C)NC(=O)[C@H](C2CCCC2)N(C)C(=O)C2(CCC2)NC(=O)[C@@H]2CCCN2C(=O)[C@H](CCc2ccc(C(F)(F)F)c(Cl)c2)NC(=O)CN(C)C(=O)[C@@H]1Cc1ccc(C(F)(F)F)cc1 [PP0374] ([NMeL]I[Aze][Sar][NPrPhe(4-CF3)][Sar][hPhe(3-Cl-4-CF3)]P[Ac4c][NMeGly(cPent)]D-NMe2; lactam N-11) | B (a compound having 3 or more and less than 10 is denoted as B) | B (a compound having 3 or more and less than 10 is denoted as B) |  |  |  | 
113 | CCO[C@@H]1C[C@H]2C(=O)NC3(CCC3)C(=O)N(C)[C@@H](C3CCCC3)C(=O)N(C)[C@H](C(=O)N3CCOCC3)CC(=O)N(C)[C@@H](Cc3ccccc3F)C(=O)N[C@@H]([C@@H](C)CC)C(=O)N(C)CC(=O)N(C)[C@H]3CCCCCN(C3=O)[C@@H](Cc3ccc(C(F)(F)F)cc3)C(=O)N(C)CC(=O)N[C@@H](CCc3cc(F)c(C(F)(F)F)c(F)c3)C(=O)N2C1 [PP0926] | B (a compound having 3 or more and less than 10 is denoted as B) | B (a compound having 3 or more and less than 10 is denoted as B) |  |  |  | 
31 | CCCN1C(=O)CN(C)C(=O)CN(CC)C(=O)[C@H](CC(F)(F)F)NC(=O)[C@H](CC(C)C)N(C)C(=O)C[C@@H](C(=O)N2CCOCC2)N(C)C(=O)[C@H](C2CCCC2)N(C)C(=O)C2(CCCC2)NC(=O)[C@@H]2CCCN2C(=O)[C@H](CCc2ccc(C(F)(F)F)c(Cl)c2)NC(=O)CN(C)C(=O)[C@@H]1Cc1ccc(C(F)(F)F)cc1 [PP0291] ([NMeL][Abu(4,4,4-F3)][NEtG][Sar][NPrPhe(4-CF3)][Sar][hPhe(3-Cl-4-CF3)]P[Ac5c][NMeGly(cPent)][NMeD]-Morpholide; lactam N-11) | B (a compound having 3 or more and less than 10 is denoted as B) | B (a compound having 3 or more and less than 10 is denoted as B) |  |  |  | 
27.9 | CCCN1C(=O)CN(C)C(=O)[C@@H]2CCN2C(=O)[C@H]([C@@H](C)CC)NC(=O)[C@H](CC(C)C)N(C)C(=O)C[C@@H](C(=O)N(C)C)N(C)C(=O)[C@H](C2CCCC2)N(C)C(=O)C2(CCC2)NC(=O)[C@@H]2CCCN2C(=O)[C@H](CCc2ccc(C(F)(F)F)c(Cl)c2)NC(=O)CN(C)C(=O)[C@@H]1Cc1ccc(C(F)(F)F)cc1 [PP0430] ([NMeL]I[Aze][Sar][NPrPhe(4-CF3)][Sar][hPhe(3-Cl-4-CF3)]P[Ac4c][NMeGly(cPent)][NMeD]-NMe2; lactam N-11) |  |  | B (a compound having 3 or more and less than 10 is denoted as B) | B (a compound having 3 or more and less than 10 is denoted as B) |  | 
10.3 | CC[C@H](C)[C@@H]1NC(=O)[C@H](CC(C)C)N(C)C(=O)C[C@@H](C(=O)N2CCOCC2)N(C)C(=O)[C@H](C2CCCC2)N(C)C(=O)C2(CCCC2)NC(=O)[C@@H]2CCCN2C(=O)[C@H](CCc2ccc(C(F)(F)F)c(Cl)c2)NC(=O)CN(C)C(=O)[C@H](Cc2ccc(F)cc2)N(CC)C(=O)CN(C)C(=O)CN(C)C1=O [PP0213] ([NMeL]I[Sar][Sar][NEtPhe(4-F)][Sar][hPhe(3-Cl-4-CF3)]P[Ac5c][NMeGly(cPent)][NMeD]-Morpholide; lactam N-11) | C (A compound having a KD ratio of 0.1 or more and less than 3 is denoted as C) | C (A compound having a KD ratio of 0.1 or more and less than 3 is denoted as C) |  |  |  | 
4.6 | CCO[C@@H]1C[C@H]2C(=O)NC3(CCCC3)C(=O)N(C)[C@@H](C3CCCC3)C(=O)N(C)[C@H](C(=O)N(C)C)CC(=O)N(C)[C@@H](CC(C)C)C(=O)N[C@@H]([C@@H](C)CC)C(=O)N(C)CC(=O)N(C)[C@H]3C/C=C\CCN(C3=O)[C@@H](Cc3ccc(C)cc3)C(=O)N(C)CC(=O)N[C@@H](CCc3ccc(C(F)(F)F)c(OC)c3)C(=O)N2C1 [PP2197] |  |  | A (a compound having 10 or more and less than 20 is denoted as A) | B (a compound having 3 or more and less than 10 is denoted as B) |  | 

— patent EP4603105A1, “PHARMACEUTICAL COMPOSITION CONTAINING CYCLIC COMPOUND HAVING SELECTIVE KRAS INHIBITORY EFFECT AGAINST HRAS AND NRAS” (CHUGAI SEIYAKU KABUSHIKI KAISHA, priority 2022, dated 2024)
